Assay results published in patent US20070093493A1, “Treatment of benign prostatic hypertrophy and lower urinary tract symptoms” (LILLY ICOS LLC, priority 2005, published 2007).

What was measured:
Format in all cases: in vivo, human
[1] = tested on: men suffering from moderate to severe LUTS secondary to BPH; assay: randomized, double-blind, placebo-controlled, parallel-group, dose-escalation study, once a day dosing: efficacy in LUTS secondary to BPH
Procedure: (§1) The efficacy and safety of Compound (I) administered once a day for LUTS secondary to BPH in male humans was tested. In particular, the efficacy and safety of Compound (I) dosed once a day was assessed in men suffering from moderate to severe LUTS secondary to BPH in a randomized, double-blind, placebo-controlled, parallel-group, dose-escalation study. Patients were treated with placebo for four weeks (single blind) to evaluate treatment compliance and establish baseline International Prostate Symptom Score (IPSS) and uroflowmetry values. After stratification by baseline IPSS (13-19, moderate LUTS; 20-35, severe LUTS), geographic region, and prior α-blocker therapy, 281 men were randomly assigned to two groups: (1) Compound (I) (5 mg for 6 weeks followed by dose escalation to 20 mg for 6 weeks) or (2) placebo (12 weeks). The primary efficacy end point was change in IPSS at 6 and 12 weeks. Secondary efficacy endpoints included changes in IPSS Quality of Life (QoL) index, BPH Impact Index (BII), uroflowmetry values, and a Global Assessment Question (LUTS GAQ) (Has the treatment you have been taking since your last visit improved your urinary symptoms?). Responses to Compound (I) 5 mg (6 weeks) or Compound (I) 5 mg followed by 20 mg (5/20 mg; 12 weeks total) were compared with placebo using ANCOVA (IPSS, BII, uroflowmetry values) and logistic linear regression (LUTS GAQ) models.

[2] = tested on: men suffering from moderate to severe LUTS secondary to BPH; assay: same clinical study: safety / tolerability of once a day dosing; conditions: dosed once a day, 5 mg then 20 mg
Procedure: as §1

[3] = tested on: men with LUTS/BPH who were sexually active and also had erectile dysfunction; assay: same clinical study: erectile function (IIEF EF domain) in the subset with erectile dysfunction; conditions: for increase in International Index of Erectile Function (IIEF) EF domain score: LS Means, p<0.001
Procedure: The efficacy and safety of Compound (I) administered once a day for LUTS secondary to BPH in male humans was tested. In particular, the efficacy and safety of Compound (I) dosed once a day was assessed in men suffering from moderate to severe LUTS secondary to BPH in a randomized, double-blind, placebo-controlled, parallel-group, dose-escalation study.
as §1, with “Patients” for “The efficacy and safety of Compound (I) administered once a day for LUTS secondary to BPH in male humans was tested. In particular, the efficacy and safety of Compound (I) dosed once a day was assessed in men suffering from moderate to severe LUTS secondary to BPH in a randomized, double-blind, placebo-controlled, parallel-group, dose-escalation study. Patients”
At 6 weeks (5 mg) and 12 weeks (5/20 mg) Compound (I) improved change from baseline scores for IPSS, IPSS QoL, BII, and LUTS GAQ compared with placebo. Peak flow rate (Qmax) changes were similar in placebo and Compound (I) treatment groups.

[4] = at 6 weeks (5 mg) and 12 weeks (5/20 mg), once a day, men

CN1CC(=O)N2[C@H](c3ccc4c(c3)OCO4)c3[nH]c4ccccc4c3C[C@@H]2C1=O [Compound (I), (6R,12aR)-2,3,6,7,12,12a-hexahydro-2-methyl-6-(3,4-methylenedioxyphenyl)pyrazino[2′,1′:6:1]pyrido[3,4-b]indole-1,4-dione]
LUTS GAQ compared with placebo [1, 4]: improved | change from baseline score for BII compared with placebo [1, 4]: improved | change from baseline score for IPSS QoL compared with placebo [1, 4]: improved | change from baseline score for IPSS compared with placebo [1, 4]: improved | efficacy in the treatment of LUTS secondary to BPH ([1]; dosed once a day, summary): statistically significant and clinically meaningful efficacy | Peak flow rate (Qmax) changes versus placebo ([1]; uroflowmetry, placebo and Compound (I) treatment groups): similar | tolerability [2]: well tolerated | increase in International Index of Erectile Function (IIEF) EF domain score ([3]; 5 mg once a day, 6 weeks, vs. 0.6 placebo): 6.0 | increase in International Index of Erectile Function (IIEF) EF domain score ([3]; 5/20 mg once a day, 12 weeks total, vs. 1.4 placebo): 7.7 | erectile function in men with both LUTS and MED ([3]; dosed once a day, summary): improved erectile function
